pKi: −log10 of the molar value.
Biological target: 5-hydroxytryptamine receptor 6 (Homo sapiens, UniProt P50406)
Assay: Displacement of [3H]LSD from human 5HT6 receptor expressed in HEK293 cells
Assay type: cell-based

Chain of 5-hydroxytryptamine receptor 6 (P50406 whole entry): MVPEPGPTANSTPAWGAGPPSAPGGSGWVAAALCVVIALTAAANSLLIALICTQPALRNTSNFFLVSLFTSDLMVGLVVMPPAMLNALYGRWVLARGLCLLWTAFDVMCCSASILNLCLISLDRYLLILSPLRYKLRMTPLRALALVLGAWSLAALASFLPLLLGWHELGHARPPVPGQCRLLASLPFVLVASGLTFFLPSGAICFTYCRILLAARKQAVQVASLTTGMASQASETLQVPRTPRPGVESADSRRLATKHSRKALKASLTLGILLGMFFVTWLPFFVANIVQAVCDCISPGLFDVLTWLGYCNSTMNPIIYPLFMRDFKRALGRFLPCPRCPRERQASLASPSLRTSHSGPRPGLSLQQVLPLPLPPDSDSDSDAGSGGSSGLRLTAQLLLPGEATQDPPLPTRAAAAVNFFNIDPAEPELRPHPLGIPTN

| Structure (SMILES) | pKi |
| --- | --- |
| Nc1ccc(S(=O)(=O)n2ccc3c([N+](=O)[O-])cc([N+](=O)[O-])cc32)cc1 | 6.01 |
| CNc1cc(NC)c2ccn(S(=O)(=O)c3ccccc3)c2c1 | 7.59 |
| Nc1ccc(S(=O)(=O)n2ccc3ccccc32)cc1 | 8.00 |
| CNc1cccc2c1ccn2S(=O)(=O)c1ccc(N)cc1 | 7.68 |
| CNc1cc(NC)c2ccn(S(=O)(=O)c3ccc(N)cc3)c2c1 | 8.72 |
| CNc1ccc2ccn(S(=O)(=O)c3ccc(N)cc3)c2c1 | 8.15 |
| c1cc(N2CCNCC2)c2cc[nH]c2c1 | 5.57 |
| Nc1ccc(S(=O)(=O)n2ccc3c(N4CCNCC4)cccc32)cc1 | 9.40 |

Reference: ChEMBL document CHEMBL1141871, “Binding of amine-substituted N1-benzenesulfonylindoles at human 5-HT6 serotonin receptors” (Bioorg Med Chem Lett, 2005)
